Experimental data as given in article PMC9068901, “Novel Inhibitors and Activity-Based Probes Targeting Trypsin-Like Serine Proteases” (Frontiers in Chemistry, 2022).
Read-outs that look alike come from different tables or passages of the source. *1 amine or outer side, *2 acyl side, *3 side chain or, on linkers, in order; H or OH if unused. Where a SMILES comes first, the peptide text is derived from it. Side-chain parts run from the residue outwards. [ ]: non-standard residue; d: D form. The star is where a group is joined. Biotin = O=C1N[C@H]2[C@H](CS[C@H]2CCCCC(=O)*)N1; Gly(N-(CH2)3-guanidino) = N=C(N)NCCCNCC(=O)O; Glutaryl = O=C(CCCC(=O)[*:2])[*:1]; X4 = O=C(Oc1c(F)c(F)c(F)c(F)c1F)*; X2 = O=C1CCC(=O)N1OC(=O)*; X3 = C#Cc1cccc(N*)c1; Ahx = NCCCCCC(=O)O; X1 = O=C(n1cncn1)*

What was measured:
human trypsin [1] = target: T1, human trypsin (Homo sapiens, UniProt P07477); assay: Determination of inhibitor constants against trypsin (progress curves, Cbz-Gly-Gly-Arg-AMC); format: biochemical; details: for k3: first-order rate constant; for k3/Ki: second-order rate constant
Protocol: (§1) Recombinant protease activities were assessed using the cognate fluorogenic substrates (final concentration 50 μM) as follows: trypsin (Cbz-Gly-Gly-Arg-AMC), neutrophil elastase (MeO-Suc-Ala-Ala-Pro-Val-AMC) and chymotrypsin (Suc-Ala-Ala-Pro-Phe-AMC). The assay in the presence or absence of protease inhibitors at a range of final concentrations was performed using a standard microtitre plate format. Substrate hydrolysis, at 37°C, was monitored over a 60 min period by measuring the rate of increase in fluorescence (at λex 360 nm, λem 480 nm) using a FLUOstar Optima microplate reader (BMG Labtech).
A broad range of inhibitor concentrations were prepared from a 10 mM stock solution of the five test compounds (NAP851, NAP966, NAP987, NAP884 and NAP858) in N,N-dimethyformamide (DMF). The fluorogenic substrate, Cbz-Gly-Gly-Arg-AMC, was diluted in assay buffer (PBS, pH 7.4) and used at a fixed concentration of 50 μM. All inhibition assays were performed in microtitre plates maintained at 37°C in a final volume of 100 μL. The reaction was initiated by the addition of human trypsin (0.01 μg/well) and the rate of substrate hydrolysis continuously recorded at λex 360 nm, λem 480 nm using a FLUOstar Optima microplate reader (BMG Labtech). The resultant inhibition progress curve for the putative protease inhibitors were analysed according to the kinetic models developed by Tian and Tsou ([Tian and Tsou, 1982]) and Walker and Elmore ([Walker and Elmore, 1984]), for irreversible inhibitors, using GRAFIT (Erithacus Software) as described previously ([Ferguson et al., 2016]).

chymotrypsin = assay: Off-target fluorogenic substrate assay, chymotrypsin; format: biochemical; details: for inhibition of chymotrypsin relative to controls: 50 μM (highest concentration tested)
Protocol: as §1

neutrophil elastase [2] = target: T2, neutrophil elastase (Homo sapiens, UniProt P08246); assay: Off-target fluorogenic substrate assay, neutrophil elastase; format: biochemical; details: 50 μM (highest concentration tested); read-out: inhibition of NE (decrease in activity) relative to controls
T2 construct: purchased Calbiochem
T2 sequence (P08246 30-267): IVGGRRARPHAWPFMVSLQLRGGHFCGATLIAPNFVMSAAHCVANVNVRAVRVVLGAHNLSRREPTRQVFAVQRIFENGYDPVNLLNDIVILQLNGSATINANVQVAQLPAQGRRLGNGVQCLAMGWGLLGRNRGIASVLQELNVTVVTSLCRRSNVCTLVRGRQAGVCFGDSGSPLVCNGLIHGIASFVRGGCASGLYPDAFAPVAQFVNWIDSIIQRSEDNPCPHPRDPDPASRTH
Protocol: as §1

trypsin [3] = assay: Activity-based probe labelling of trypsin (SDS-PAGE, Western blot, streptavidin-HRP); format: binding; details: probe 50 μM, 30 min, 37°C
Protocol: (§2) Samples of recombinant protease (trypsin, human airway trypsin-like protease (HAT), matriptase, thrombin or neutrophil elastase, as indicated in the relevant figure legends) were treated with putative ABPs at a concentration of 50 μM, for 30 min, at 37°C. A control sample was prepared by treating recombinant protease with solvent control only. A further sample was prepared where Cbz-Arg^P(OPh)2 was added 30 min prior to the addition of the ABP under examination. […] All treated samples were then denatured with SDS-containing reducing treatment buffer (10 min at 95°C), followed by resolution by SDS-PAGE and subjected to Western blotting. Note, only stable covalent bonds between the ABP and protease active site would survive the harsh denaturing conditions involved in the resolution process. Resolved proteins were then transferred on to nitrocellulose membrane and labelled with streptavidin-HRP. The ABP-protease complex was then visualised following treatment with Luminata Forte HRP substrate.

[4] = system: trypsin-like proteases in American cockroach extract; assay: ABP of American cockroach extract; format: binding, Periplaneta americana; details: probe 50 μM, 30 min, 37°C
Protocol: (§3) Cockroach extract was probed with NAP858 (50 μM) (± heat inactivation at 95°C, for 10 min), for 30 min, at 37°C. Samples were then denatured with SDS-containing reducing treatment buffer (10 min/95°C), followed by resolution by SDS-PAGE and protein transfer unto nitrocellulose membrane which was incubated with streptavidin-HRP (1 in 20,000). The membrane was visualised following treatment with Luminata Forte HRP substrate.
(§4) Removal of endogenous biotinylated proteins present in the cockroach extract was performed in some experiments to improve clarity of the Western blots obtained. Neutravidin agarose beads were washed three times with 1 ml wash buffer (150 mM NaCl, 50 mM Tris, 1 mM EGTA, 1% (v/v) NP-40, pH 7.4) then resuspended in PBS (pH 7.4). These neutravidin beads were then used to bind and remove (pre-clear) endogenous biotinylated proteins present in the cockroach extract. This involved rotation of the bead-cockroach extract mix at 4°C for 30 min followed by centrifugation to enable collection of the pre-cleared supernatant fraction. The bead fraction containing bound endogenous biotinylated proteins from cockroach extract was discarded. The supernatant was then probed with NAP858 (50 μM) (±Cbz-Arg^P(OPh)2), for 30 min, at 37°C, followed by addition of freshly washed neutravidin agarose beads. […]

[5] = target: T3, human airway trypsin-like protease (HAT) (Homo sapiens, UniProt O60235); assay: Activity-based probe labelling of HAT; format: binding; details: 30 min, 37°C; band at 25 kDa
T3 construct: purchased R and D Systems
T3 sequence (O60235 187-418 limits assumed): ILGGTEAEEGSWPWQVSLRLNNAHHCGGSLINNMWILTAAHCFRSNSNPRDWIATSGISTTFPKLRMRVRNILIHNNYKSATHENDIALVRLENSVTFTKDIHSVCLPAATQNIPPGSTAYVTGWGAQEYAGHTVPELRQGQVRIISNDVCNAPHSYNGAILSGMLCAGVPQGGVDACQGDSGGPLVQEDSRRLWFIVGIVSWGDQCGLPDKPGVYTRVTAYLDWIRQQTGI
T3 sequence (O60235 44-186 partner limits assumed): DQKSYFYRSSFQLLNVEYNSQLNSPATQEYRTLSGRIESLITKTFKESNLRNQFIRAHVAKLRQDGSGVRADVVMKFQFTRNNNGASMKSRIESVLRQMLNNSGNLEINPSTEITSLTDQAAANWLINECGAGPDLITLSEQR
Protocol: as §2

matriptase [6] = target: T4, matriptase (Homo sapiens, UniProt Q9Y5Y6); assay: Activity-based probe labelling of matriptase; format: binding; details: 30 min, 37°C; band at 26 kDa
T4 construct: purchased R and D Systems
T4 sequence (Q9Y5Y6 615-855 limits assumed): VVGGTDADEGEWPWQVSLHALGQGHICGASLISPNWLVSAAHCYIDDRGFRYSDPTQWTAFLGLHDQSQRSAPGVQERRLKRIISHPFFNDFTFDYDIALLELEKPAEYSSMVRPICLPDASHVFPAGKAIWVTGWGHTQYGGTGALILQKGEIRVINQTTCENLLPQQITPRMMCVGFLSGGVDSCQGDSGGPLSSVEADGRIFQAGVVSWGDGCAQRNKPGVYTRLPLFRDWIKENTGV
Protocol: as §2

trypsin [7] = assay: Off-target fluorogenic substrate assay, trypsin; format: biochemical; details: across the range of concentrations studied, vs chymotrypsin and NE
Protocol: as §1

[8] = system: trypsin-like proteases in German cockroach extract; assay: ABP of German cockroach extract; format: binding, Blattella germanica; details: probe 50 μM, 30 min, 37°C
Protocol: as §3, §4

thrombin = target: T5, thrombin (Homo sapiens, UniProt P00734); assay: Activity-based probe labelling of thrombin; format: binding; details: 30 min, 37°C; heavy chain 31 kDa
T5 construct: purchased R and D Systems
Protocol: as §2

trypsin [9] = assay: Click chemistry labelling of trypsin with rhodamine-azide; format: binding; details: trypsin 1 μg
Protocol: (§5) Samples pre-treated with competitive inhibitor (Cbz-Arg^P(OPh)2 for trypsin and Cbz-Val^P(OPh)2 for neutrophil elastase) for 30 min prior to addition of NAP884, were included for comparison. Following treatment with NAP884, DMSO (25% v/v final concentration), rhodamine-X azide (60 µM final concentration), copper (II)-TBTA complex (1 mM final concentration) and freshly prepared sodium ascorbate (1 mM final concentration) were added. The samples were mixed and incubated at room temperature in the dark for 1 h with gentle agitation. Samples were then denatured with SDS-containing reducing treatment buffer (10 min at 95°C), followed by resolution by SDS-PAGE and visualisation under UV light.

neutrophil elastase [10] = target: T2, neutrophil elastase; assay: Click chemistry labelling of neutrophil elastase with rhodamine-azide; format: binding; details: NE 1 μg, 30 min, 37°C
Protocol: as §5, with “Samples of recombinant protease (trypsin and neutrophil elastase) were treated with alkyne-containing probe NAP884 at a concentration of 50 μM, for 30 min at 37°C. Samples pre-treated” for “Samples pre-treated”

HAT = system: HAT; set-up: method as in Reihill et al., 2016; details: in words; ref Reihill et al., 2016; cited from earlier work
human trypsin [11] = target: T1, human trypsin; set-up: method as in PMID 10611275; details: ref [30]; cited from earlier work
matriptase [12] = target: T4, matriptase; set-up: method as in Reihill et al., 2016; details: in words; ref Reihill et al., 2016; cited from earlier work
[13] = PBS pH 7.4, 37°C, 50 μM Cbz-Gly-Gly-Arg-AMC, ±S.E.M., three determinations, read-out: Ki
[14] = PBS pH 7.4, 37°C, ±S.E.M., three determinations

Row | SMILES | Ki (human trypsin [1]; [13]) [nM] | k3 (human trypsin [1]; [14]) | k3/Ki (human trypsin [1]; [14]) | inhibition of chymotrypsin relative to controls (chymotrypsin) [%] | inhibition at 50 µM (neutrophil elastase [2]) [%] | labelling of trypsin (trypsin [3]) | selectivity of action for trypsin (trypsin [7]) | also measured
1 | N=C(N)NCCCN(CC(=O)NCC(=O)NCC(=O)NCCCCCC(=O)N[C@@H](CCCCNC(=O)CCCC[C@@H]1SC[C@@H]2NC(=O)N[C@@H]21)C(=O)O)C(=O)n1cncn1 [NAP851] (X1-[Gly(N-(CH2)3-guanidino)]GG[Ahx]K(Biotin)-OH; N-terminus assumed) | 7560 | 0.160 (±0.020) min^−1 | 2.46 (±0.858) x 10^4 M^−1 min^−1 |  |  |  |  | substrate turnover at prolonged incubation (human trypsin [1]; progress curves, 60 min incubation): slight increase in fluorescence, due to residual substrate turnover; Ki (human trypsin [1]; read-out: Ki): ~7600 nM; k3/Ki fold smaller than NAP858 (human trypsin [1]; trypsin): ~8 fold; k3/Ki fold smaller than NAP897/NAP884 (human trypsin [1]; trypsin): ~4 fold; k3/Ki fold smaller than NAP966 (human trypsin [1]; trypsin): ~6 fold
2 | N=C(N)NCCCN(CC(=O)NCC(=O)NCC(=O)NCCCOCCOCCOCCCNC(=O)CCCC[C@@H]1SC[C@@H]2NC(=O)N[C@@H]21)C(=O)ON1C(=O)CCC1=O [NAP858] | 226 | 0.473 (±0.101) min^−1 | 2.06 (±0.884) x 10^6 M^−1 min^−1 | < 10 | < 10 | labelling of a single protein band corresponding to the correct molecular mass of trypsin | pronounced selectivity of action in inhibiting trypsin | bands detected in American cockroach extract [4]: single, intense band with an apparent molecular mass of 25 kDa; labelling of HAT [5]: does indeed function as an AP for both proteases; labelling of matriptase (matriptase [6]): does indeed function as an AP for both proteases; bands detected in B. germanica extract [8]: close doublet of protein bands of similar molecular mass (≈25 kDa); labelling of thrombin (thrombin): can act as an AP for thrombin
3 | C#Cc1cccc(NC(=O)CCCC(=O)NCCCC[C@H](NC(=O)CCCCCNC(=O)CNC(=O)CNC(=O)CN(CCCNC(=N)N)C(=O)ON2C(=O)CCC2=O)C(=O)O)c1 [NAP884] (X2-[Gly(N-(CH2)3-guanidino)]GG[Ahx]K([Glutaryl-X3])-OH) | 420 | 0.528 (±0.064) min^−1 | 1.34 (±0.351) x 10^6 M^−1 min^−1 |  | ~50 |  | pronounced selectivity of action in inhibiting trypsin | detection of trypsin (trypsin [9]; probe 1 μM): not detectable; detection of trypsin (trypsin [9]; probe 10 μM): enabled the detection of trypsin; detection of trypsin (trypsin [9]; probe 50 μM): enabled the detection of trypsin; inhibitory behaviour against chymotrypsin (chymotrypsin; in words): similarly discriminating inhibitory behaviour against trypsin compared to chymotrypsin; labelling of NE (neutrophil elastase [10]): complete absence of labelling of NE
4 | N=C(N)NCCCN(CC(=O)NCC(=O)NCC(=O)NCCCCCC(=O)N[C@@H](CCCCNC(=O)CCCC[C@@H]1SC[C@@H]2NC(=O)N[C@@H]21)C(=O)O)C(=O)ON1C(=O)CCC1=O [NAP897] (X2-[Gly(N-(CH2)3-guanidino)]GG[Ahx]K(Biotin)-OH) | 663 | 0.741 (±0.225) min^−1 | 1.35 (±0.376) x 10^6 M^−1 min^−1 | < 10 | < 10 | labelling of a single protein band corresponding to the correct molecular mass of trypsin | pronounced selectivity of action in inhibiting trypsin | 
5 | N=C(N)NCCCN(CC(=O)NCC(=O)NCC(=O)NCCCCCC(=O)N[C@@H](CCCCNC(=O)CCCC[C@@H]1SC[C@@H]2NC(=O)N[C@@H]21)C(=O)O)C(=O)Oc1c(F)c(F)c(F)c(F)c1F [NAP966] (X4-[Gly(N-(CH2)3-guanidino)]GG[Ahx]K(Biotin)-OH) |  | 0.401 (±0.007) min^−1 | 1.92 (±0.250) x 10^5 M^−1 min^−1 |  |  |  |  | Ki (human trypsin [1]; Ki): ~2100 nM; Ki (human trypsin [1]; Ki, PBS pH 7.4, 37°C, 50 μM Cbz-Gly-Gly-Arg-AMC, ±S.E.M., three determinations): 2120 nM
6 | N=C(N)NCCC[C@H](NC(=O)CCC(=O)NCCCOCCOCCOCCCNC(=O)CCCC[C@@H]1SC[C@@H]2NC(=O)N[C@@H]21)P(=O)(Oc1ccccc1)Oc1ccccc1 [QUB-TL1] |  |  |  |  |  |  |  | inhibition of HAT (HAT): potent inhibitor; Ki (human trypsin [11]): 174 nM; k3 (human trypsin [11]): 0.284 min⁻¹; k3/Ki (human trypsin [11]): 1.64e+06 M⁻¹ min⁻¹; inhibition of matriptase (matriptase [12]): potent inhibitor
